Laboratory results from ChEMBL document CHEMBL1129908, “ECD peptides inhibit in vitro fertilization in mice” (Bioorg Med Chem Lett, 1997).
pIC50: −log10 of the molar value. Where a SMILES comes first, the peptide text is derived from it.

Species on record: Mus musculus
Test: Tested for inhibition of sperm-egg fusion in in vitro mouse fertilization assays
Assay type: functional

pIC50: 3.60
SMILES: CC(C)C[C@H](NC(=O)[C@H](CCCN=C(N)N)NC(=O)[C@@H](N)CS)C(=O)N[C@@H](C)C(=O)N[C@@H](CCC(N)=O)C(=O)N[C@@H](CC(=O)O)C(=O)N[C@@H](CCC(=O)O)C(=O)N[C@@H](C)C(=O)N[C@@H](CC(=O)O)C(=O)N[C@H](C(=O)N[C@H](C(=O)N[C@@H](CCC(=O)O)C(=O)N[C@@H](Cc1ccc(O)cc1)C(=O)N[C@@H](CS)C(=O)O)[C@@H](C)O)C(C)C (H-CRLAQDEADVTEYC-OH)
